Assay results from article PMC6017358 (Molecules : A Journal of Synthetic Chemistry and Natural …, 2018).
In brackets after ≈: the same amount, converted by molar mass. Several values for one entry are separate records, joined by “and”; a condition that tells them apart may be missing. Equal values may be shown once. Where a name gives a salt, the structure may show the parent alone. Read-outs that look alike come from different tables or passages of the source.

How the values were obtained:
[1] = tested on: breast cancer cell line MCF-7; assay: In vitro cytotoxicity viability assay (crystal violet); format: cell-based; settings: Homo sapiens, MCF7
Procedure: (§1) The cells were seeded in 96-well plates at a cell concentration of 1 × 10^4 cells per well in 100 µL of growth medium. Fresh medium containing different concentrations of the test sample was added 24 h after seeding. Serial two-fold dilutions of the tested chemical compound were added to confluent cell monolayers dispensed into 96-well, flat-bottomed microliter plates (Falcon, NJ, USA) using a multichannel pipette. The microliter plates were incubated at 37 °C in a humidified incubator with 5% CO2 for a period of 48 h. Three wells were used for each concentration of the test sample. Control cells were incubated without test sample and with or without DMSO. The little percentage of DMSO present in the wells (maximal 0.1%) was found not to affect the experiment. After incubation of the cells at 37 °C, various concentrations of sample were added, and the incubation was continued for 24 h and viable cells yield was determined by a colorimetric method. In brief, after the end of the incubation period, media were aspirated and the crystal violet solution (1%) was added to each well for at least 30 min. The stain was removed and the plates were rinsed using tap water until all excess stain is removed. Glacial acetic acid (30%) was then added to all wells and mixed thoroughly, and then the absorbance of the plates were measured after gently shaken on microplate reader (TECAN, Inc., Morrisville, NC, USA), using a wavelength of 490 nm. All results were corrected for background absorbance detected in wells without added stain. Treated samples were compared with the cell control in the absence of the tested compounds. All experiments were carried out in triplicate. The cell cytotoxic effect of each tested concentration was calculated. The optical density was measured with the microplate reader (SunRise, TECAN, Inc., Morrisville, NC, USA) to determine the number of viable cells and the percentage of viability was calculated as [1 − (ODt/ODc)] × 100% where ODt is the mean optical density of wells treated with the tested sample and ODc is the mean optical density of untreated cells. The relation between surviving cells and drug concentration is plotted to get the survival curve of each tumor cell line after treatment. […] The biological evaluation was done at the Regional Center for Mycology & Biotechnology, Al-Azhar University.

[2] = tested on: lung cancer cell line A-549; assay: as above; format: cell-based; settings: Homo sapiens, A549
Procedure: as §1

rats = settings: oral administration in rats; cited from earlier work

Compound	IC50 ([1]; MCF-7, read-out: IC50) [µg/mL]	IC50 ([2]; read-out: IC50) [µg/mL]	LD50 (rats) [mg/kg]	IC50 [1]	IC50 [2]
NCCCC(O)(P(=O)(O)O)P(=O)(O)O [Alendronate, reference compound]	89.4 (≈ 359 µM)	19 (≈ 76.3 µM)			
CP(=O)(O)CCC(N)C(=O)O (centres unmarked) [Phosphinothricin, 2-amino-4-(hydroxymethyl-phosphinylbutyric acid ammonium salt]			2170	32.6 µg/mL and 180 µM	45.8 µg/mL and 253 µM
